For one test, the system named is Agrostis tenius. The conditions noted are these: AT, 4000 ppm, 2-3 weeks.
Test [1] has as its system plant species of Whole Plant Screen (1) or (2). Briefly: Across screen comparison: total retardation relative to paclobutrazol (Whole Plant Screens (1) and (2)). In kind it is in vivo. The conditions noted are these: compounds of Table I, Table X. In outline: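 Compounds, each tested in Whole Plant Screen (1) or (2), are compared by summing retardation scores over all species tested. Each total is expressed as a percentage of the total retardation from paclobutrazol, the standard run in every test.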

For another test, the system named is Dacrylis glomerata. The settings on record: DA, 4000 ppm, 2-3 weeks.
A further test has as its system Spring Barley. Kind of test: Intermediate Retardant Test, spring barley. It counts as in vivo, Spring Barley (Atem/kym). The conditions noted are these: Hordeum vulgare, 672 h, ~28 days, Table VIII, read-out: Percentage Reduction in Height of Spring Barley (Compared to formulation blank). In outline: (§1)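 Overall spray at 1000 ppm and 4000 ppm (1 and 4 kg ha^-1, 1000 l/ha), giving foliar plus root exposure; rice in flooded paddy pots, barley and apples in 4" pots. Height measured ~28 days after treatment (ligule for cereals, apex for apples), reported as % reduction versus formulation blank.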

The next test concerns Rice. Kind of test: Intermediate Retardant Test, rice. The settings on record: Oryza sativa, 672 h, ~28 days, Table VII, read-out: Percentage Reduction in Height of Rice (Compared to formulation blank). In kind it is in vivo, Rice (Ishikari). In outline: as §1
A further test relates to Soya. The settings on record: SY, 4000 ppm, 2-3 weeks.
Another test deals with Tomato. The conditions noted are these: TO, 4000 ppm, 2-3 weeks.
The test system of another test is Cynosurus cristatus. The conditions noted are these: CC, 4000 ppm, 2-3 weeks.
In another test the test system is Sugar beet. The conditions noted are these: SB, 4000 ppm, 2-3 weeks.
The next test concerns Vines. The conditions noted are these: VN, 4000 ppm, 2-3 weeks.
The test system of the next test is Wheat. The settings on record: WW, 4000 ppm, 2-3 weeks.
The subject of the next test is Lettuce. The settings on record: LT, 4000 ppm, 2-3 weeks.
Another test relates to Apples. Briefly: Intermediate Retardant Test, apples. The conditions noted are these: 672 h, ~28 days, Table IX, read-out: Percentage Reduction in Height of Apples (Compared to formulation blank). In kind it is in vivo, Apples (Red Delicious). In outline:
as §1

For the next test, the system named is Barley. The settings on record: BR, 4000 ppm, 2-3 weeks.
A further test concerns Maize. The conditions noted are these: MZ, 4000 ppm, 2-3 weeks.
In another test the test system is Radish. The conditions noted are these: RA, 4000 ppm, 2-3 weeks.

Molecules are shown by their SMILES.

Experimental for Agrostis tenius: (§2) The compounds were tested for plant growth regulator activity against up to tweleve plant species for various growth effects relevant to plant growth regulation.
(§3) Each chemical was applied at 4000 ppm (4 kg/ha in a 1000 l/ha field volume) using a tracksprayer and a SS8004E (Teejet) nozzle.
(§4) After spray, the plants were grown in a glasshouse with 25° C. day/22° C. night temperatures and supplementary lighting was supplied when necessary (from mercury vapour lamps), to provide a 16 hour photoperiod. The exception to this were the temperate cereals, wheat and barley, which were grown in 16° C. day 13° C. night temperatures
(§5) After 2-3 weeks in the glasshouse, depending on the time of year, the plants were visually assessed for morphological characteristics. Formulations blanks were used as controls to assess the Plants.
Experimental for Cynosurus cristatus: as §2, §3, §4, §5
Experimental for Dacrylis glomerata: as §2, §3, §4, §5
Experimental for Lettuce: as §2, §3, §4, §5
Experimental for Maize: as §2, §3, §4, §5
Experimental for Radish: as §2, §3, §4, §5
Experimental for Soya: as §2, §3, §4, §5
Experimental for Sugar beet: as §2, §3, §4, §5
Experimental for Vines: as §2, §3, §4, §5
Experimental for Wheat: as §2, §3, §4, §5

For `CCC(C)C#CC(O)(Cn1cncn1)C(C)(C)C` (centres unmarked) [Compound 6, 2,2-dimethyl-3-hydroxy-3-(3-methyl-pent-1-yne-1-yl)-4-(1,2,4-triazol-1-yl)-butane], the “Retardation score (1-3) with greening (G), apical damage (A), tillering/side shooting (T)” value (“Retardation score … tillering/side shooting (T)” for short) in the test with Agrostis tenius is on record as 1 (10-30% retardation); with Dacrylis glomerata, 1 (10-30% retardation); with Soya, 2GA; with Tomato it was 1G; in the test with Cynosurus cristatus, 1 (10-30% retardation); in the test with Sugar beet, 1G. Further, the “Retardation score … tillering/side shooting (T)” value is recorded as 2GT in the test with Vines, 3GT in the test on Wheat, 1G with Lettuce and 2G in the test on Barley. For the same compound, the “Total Retardation expressed as a percentage of the total retardation caused by paclobutrazol” value in [1] is reported as 52.0 % of paclobutrazol. Also, in the test with Spring Barley, the height reduction vs blank at 1000 ppm amounted to 0.8%. In the test on Spring Barley, the height reduction vs blank at 4000 ppm came out at 23.5%. Also, the Percent reduction in rice plant height vs formulation blank at 1000 ppm in the test on Rice stood at 11.2%. Besides, in the test on Rice, the Percent reduction in rice plant height vs formulation blank at 4000 ppm came out at 22.7%. For the same compound, in the test with Apples, the percent reduction in plant height vs formulation blank at 1000 ppm is 1.2%. Besides, in the test on Apples, the percent reduction in plant height vs formulation blank at 4000 ppm came to 38.6%.

For the compound `CCCCCC#CC(O)(Cn1cncn1)C(C)(C)C` (centres unmarked) [Compound 3, 2,2-dimethyl-3-hydroxy-3-(hept-1-yne-1-yl)-4-(1,2,4-triazol-1-yl)-butane], the “Retardation score … tillering/side shooting (T)” value was 2G with Agrostis tenius; 2G with Dacrylis glomerata; 1G in the test with Maize; 3GA with Soya; 2G in the test with Tomato; 2G in the test with Cynosurus cristatus. Moreover, the “Retardation score … tillering/side shooting (T)” value in the test on Sugar beet was 1G; in the test with Vines, 2GAT; in the test with Radish, 3 (61-100% retardation); in the test with Wheat, 2GT; with Barley it was 1T. Besides, the “Total Retardation expressed as a percentage of the total retardation caused by paclobutrazol” value in [1] is given as 65.6 % of paclobutrazol. Further, the height reduction vs blank at 1000 ppm in the test with Spring Barley turned out to be 18.5%. The height reduction vs blank at 4000 ppm in the test with Spring Barley was 34.7%. For the same compound, the Percent reduction in rice plant height vs formulation blank at 1000 ppm with Rice is 21.2%. In addition, the Percent reduction in rice plant height vs formulation blank at 4000 ppm in the test with Rice amounted to 40.8%. In addition, the percent reduction in plant height vs formulation blank at 1000 ppm in the test with Apples amounted to 9.5%. For the same compound, the percent reduction in plant height vs formulation blank at 4000 ppm with Apples was 25.9%.

Turning to `CC(C)CCC#CC(O)(Cn1cncn1)C(C)(C)C` (centres unmarked) [Compound 8, 2,2-dimethyl-3-hydroxy-3-(5-methyl-hex-1-yne-1-yl)-4-(1,2,4-triazol-1-yl)-butane], the “Retardation score … tillering/side shooting (T)” value with Agrostis tenius is given as 1G; with Dacrylis glomerata, 1G; with Maize, 1G; in the test with Soya, 3G; with Tomato it was 2G; in the test with Cynosurus cristatus, 2G. Moreover, the “Retardation score … tillering/side shooting (T)” value is given as 1 (10-30% retardation) in the test on Vines; 3G in the test on Radish; 3GT in the test with Wheat; 1G in the test on Lettuce; 1T in the test with Barley. In test [1], the “Total Retardation expressed as a percentage of the total retardation caused by paclobutrazol” value is given as 60.0 % of paclobutrazol. Further, the height reduction vs blank at 1000 ppm with Spring Barley turned out to be 39.6%. In addition, in the test on Spring Barley, the height reduction vs blank at 4000 ppm is 65.8%. Further, the Percent reduction in rice plant height vs formulation blank at 1000 ppm with Rice was 26.6%. Moreover, in the test on Rice, the Percent reduction in rice plant height vs formulation blank at 4000 ppm was determined as 47.7%. The percent reduction in plant height vs formulation blank at 1000 ppm in the test on Apples came out at 7.5%. For the same compound, the percent reduction in plant height vs formulation blank at 4000 ppm in the test with Apples came to 26%.

With `CCCCC#CC(Cn1cncn1)(OC)C(C)(C)C` (centres unmarked) [Compound 2], the “Retardation score … tillering/side shooting (T)” value with Maize is 2GA; in the test with Soya, 3GT; in the test on Tomato it was 1G; in the test on Cynosurus cristatus, 1G; with Sugar beet, 1G; in the test on Wheat it was 2G. In addition, in the test with Lettuce, the “Retardation score … tillering/side shooting (T)” value is listed as 1 (10-30% retardation). For the same compound, in the test with Spring Barley, the height reduction vs blank at 1000 ppm came out at 0.2%. In addition, the height reduction vs blank at 4000 ppm in the test on Spring Barley was determined as 25.6%. For the same compound, in the test with Rice, the Percent reduction in rice plant height vs formulation blank at 1000 ppm came out at 17.4%. Besides, the Percent reduction in rice plant height vs formulation blank at 4000 ppm in the test on Rice is 34.6%. Further, in the test on Apples, the percent reduction in plant height vs formulation blank at 4000 ppm came out at 12.3%.

These data come from patent US4895589A, “Heterocyclic compounds” (Imperial Chemical Industries PLC, priority 1985, dated 1990).
